Measurements reported in ChEMBL document CHEMBL5226350, “NSAIDs: Old Acquaintance in the Pipeline for Cancer Treatment and Prevention─Structural Modulation, Mechanisms of Action, and Bright Future” (J Med Chem, 2021).

Key:
[1] = test system: HT-29; test: Antitumor activity against human HT-29 cells xenografted in sc dosed Apc/Min mouse assessed as reduction in tumor growth in presence of DFMO relative to control; type: functional
[2] = test system: HT-29; test: Antitumor activity against human HT-29 cells expressing Trx-1 xenografted in sc dosed mouse in presence of DFMO by immunohistochemical staining based analysis relative to control; type: functional
[3] = test system: HT-29; test: Antitumor activity against human HT-29 cells expressing Trx-1 xenografted in sc dosed mouse assessed as reduction in tumor volume in presence of DFMO by immunohistochemical staining based analysis relative to control; type: functional; design: scale not given: the % may be the effect or the level left
[4] = test system: U-118-MG; test: Antitumor activity against human U-118-MG cells xenografted in sc dosed BALB/c mouse assessed as tumor growth inhibition at 20 mg/kg measured after 29 days relative to control; type: functional; conditions: 696 h, time 29 day, read-out: TGI
[5] = test system: HT-29; test: Antitumor activity against human HT-29 cells xenografted in sc dosed mouse assessed as reduction in tumor volume measured after 10 days relative to control; type: functional; design: scale not given: the % may be the effect or the level left; conditions: time 10 day
[6] = test system: HT-29; test: Antitumor activity against human HT-29 cells xenografted in ip dosed mouse assessed as reduction in tumor volume measured after 21 days relative to control; type: functional; design: scale not given: the % may be the effect or the level left; conditions: time 21 day
[7] = test system: A549; test: Antitumor activity against human A549 cells xenografted in ip dosed mouse assessed as tumor growth inhibition at 200 mg/kg measured after 6 weeks relative to control; type: functional; design: scale not given: the % may be the effect or the level left
[8] = test system: A-431; test: Antitumor activity against human A-431 cells xenografted in sc dosed mouse assessed as tumor growth inhibition measured after 15 days in presence of diclofenac relative to control; type: functional; conditions: time 15 day
[9] = test system: PANC-1; test: Antitumor activity against human PANC-1 cells xenografted in po dosed BALB/c mouse assessed as tumor growth inhibition measured after 30 days relative to control; type: functional; conditions: time 30 day
[10] = test system: Mus musculus; test: Inhibition of pancreatitis-accelerated acinar-to-ductal metaplasia in C57Bl/6J mouse harboring Kras G12D mutant at 100 mg/kg ,po administered via gavage measured after 3 weeks in presence of cerulein relative to control; type: toxicity, organism-based; conditions: 504 h

`CCOP(=O)(OCC)OCCCCOC(=O)CC1=C(C)/C(=C/c2ccc([S+](C)[O-])cc2)c2ccc(F)cc21` (stereo not given) was tested, and the TGI [1] was 90%, the Activity [2] was 50% and the Activity [3] was 83%.

`CCOP(=O)(OCC)OCC(CNC(=O)C(C)c1ccc(CC(C)C)cc1)OP(=O)(OCC)OCC` (stereo not given) gave an inhibition in vivo at 20 mg/kg [4] of 77%.

In the case of `O=C(CCCO[N+](=O)[O-])Oc1ccccc1C(=O)Oc1ccc(-c2cc(=S)ss2)cc1`, the Activity [5] was 85%.

For `CCOP(=O)(OCC)OCc1cccc(OC(=O)c2ccccc2OC(C)=O)c1`, the Activity [6] was >60%.

For `CCOP(=O)(OCC)OCCCCNC(=O)C(C)c1ccc(CC(C)C)cc1` (stereo not given), the Activity [7] was >95%.

`NCCCC(N)(C(=O)O)C(F)F` (stereo not given) [EFLORNITHINE] showed a TGI [8] of 90%.

`CCOP(=O)(OCC)OCC(COC(=O)c1ccccc1OC(C)=O)OP(=O)(OCC)OCC` (stereo not given) showed a TGI [9] of 78% and an inhibition at 100 mg/kg [10] of 83%.
